Results taken from patent US7495104B2, “Quinoline or quinazoline derivatives inhibiting auto-phosphorylation of fibroblast growth factor receptors” (Kirin Beer Kabushiki Kaisha, priority 2001, dated 2009).

Biological target: Bek (Homo sapiens, UniProt P21802)
Test: Inhibitory activity against Bek-autophosphorylation using ELISA method in OCUM-2MD3 cells
Format: cell-based
Details: 1 hr with compound, read-out: IC50 (concentration necessary for inhibiting 50% of Bek-phosphorylation)
Description: Human scirrhus stomach cancer cells OCUM-2MD3 (kindly provided by Dr. Kosei Hirakawa, Osaka City University) were cultured in an RPMI medium containing 10% fetal calf serum (purchased from ICN) within a 5% carbon dioxide incubator until 50 to 90% confluent. The harvested cells were seeded onto 96-well flat-bottom plate in RPMI containing 0.1% fetal calf serum at 3.5×10^4 cells per well, followed by cultivation at 37° C. overnight. A solution of the test compound in dimethyl sulfoxide was added to each well, and the cultivation was continued at 37° C. for additional one hr. The medium was removed, and 50 μl of lysis buffer (20 mM HEPES (pH 7.4), 150 mM NaCl, 0.2% Triton X-100, 10% glycerol, 5 mM sodium orthovanadylate, 5 mM disodium ethylenediaminetetraacetate, and 2 mM Na4P2O7) was then added thereto. The mixture was shaken at 4° C. for 2 hr to prepare cell extracts.
Separately, phosphate buffered saline (50 μl, pH 7.4) containing 5 μg/ml of anti-phospho-tyrosine antibody (PY20; purchased from Transduction Laboratories) was added to a microplate for ELISA (Maxisorp; purchased from NUNC), followed by standing at 4° C. overnight to form a solid phase on the wells. After washing of the plate, 300 μl of a blocking solution was added, followed by standing at room temperature for 2 hr to perform blocking. After washing, the whole quantity of the cell extracts was transferred to the wells, and the plate was then allowed to stand at 4° C. overnight. After washing, an anti-Bek antibody (Bek (C-17), purchased from Santa Cruz Biotechnology) or Anti-Human K-sam Rabbit IgG Affinity Purity (purchased from IBL Co., Ltd.) was allowed to react at room temperature for one hr, and, after washing, a peroxidase-labeled anti-rabbit Ig antibody (purchased from Amersham) was allowed to react at room temperature for one hr. After washing, a chromophoric substrate for peroxidase (purchased from Sumitomo Bakelite Co., Ltd.) was added thereto to initiate a reaction. After a suitable level of color development, a reaction termination solution was added to stop the reaction, and the absorbance at 450 nm was measured with a microplate reader. The Bek-phosphorylation activity for each well was determined by presuming the absorbance without the addition of the medicament to be 100% Bek-phosphorylation activity and the absorbance with the addition of a large excess of a positive control (N-{4-[(6,7-dimethoxy-4-quinolyl)oxy]phenyl}-N′-(3,3-dimethylbutyl)urea, 1000 nM) to be 0% Bek-phosphorylation activity. The concentration of the test compound was varied on several levels, the Bek-phosphorylation inhibitory activity was determined for each case, and the concentration of the test compound necessary for inhibiting 50% of Bek-phosphorylation (IC50) was calculated.

Sequence of Bek (P21802 431-767 limits assumed): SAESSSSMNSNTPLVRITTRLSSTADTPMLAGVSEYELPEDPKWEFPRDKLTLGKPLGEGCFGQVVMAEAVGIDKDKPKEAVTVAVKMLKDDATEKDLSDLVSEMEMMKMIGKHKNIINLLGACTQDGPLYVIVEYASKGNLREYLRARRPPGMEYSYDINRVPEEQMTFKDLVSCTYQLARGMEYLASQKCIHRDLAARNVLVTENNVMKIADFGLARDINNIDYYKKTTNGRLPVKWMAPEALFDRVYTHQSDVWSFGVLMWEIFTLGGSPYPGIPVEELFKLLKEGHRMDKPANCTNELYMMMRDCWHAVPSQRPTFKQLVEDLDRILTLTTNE

| SMILES | IC50 |
| --- | --- |
| C=C[C@H]1CN2CCC1C[C@@H]2COc1cc2nccc(Oc3ccc(Nc4ccc(C(C)(C)C)cc4)cc3)c2cc1OC (stereo in doubt) [Compound 57, (4-Tert-butylphenyl)-{4-[6-methoxy-7-(5-vinyl-1-azabicyclo-[2.2.2]oct-2-ylmethoxy)quinolin-4-yloxy]phenyl}amine] | 3830 nM |
| COc1ccc(Nc2ccc(Oc3ccnc4cc(OC)c(OC)cc34)cc2)cc1 [Compound 1, [4-(6,7-Dimethoxyquinolin-4-yloxy)phenyl]-(4-methoxyphenyl)-amine] | 3930 nM |
| C=Cc1ccc(Nc2ccc(Oc3ccnc4cc(OC)c(OC)cc34)cc2)cc1 [Compound 2, [4-(6,7-Dimethoxyquinolin-4-yloxy)phenyl]-(4-vinylphenyl)amine] | 7940 nM |
| COc1cc2nccc(Oc3ccc(Nc4ccc(-c5ccccc5)cc4)cc3)c2cc1OC [Compound 3, Biphenyl-4-yl-[4-(6,7-dimethoxyquinolin-4-yloxy)phenyl]amine] | 4580 nM |
| COc1cc2nccc(Oc3ccc(Nc4ccc(F)cc4)cc3)c2cc1OC [Compound 4, [4-(6,7-Dimethoxyquinolin-4-yloxy)phenyl]-(4-fluorophenyl)amine] | 3730 nM |
| COc1cc2nccc(Oc3ccc(Nc4ccc(C(C)(C)C)cc4)cc3)c2cc1OC [Compound 5, (4-Tert-butylphenyl)-[4-(6,7-dimethoxyquinolin-4-yloxy)phenyl]amine] | 321 nM |
| COc1cc2nccc(Oc3ccc(Nc4ccc(OC(F)(F)F)cc4)cc3)c2cc1OC [Compound 6, [4-(6,7-Dimethoxyquinolin-4-yloxy)phenyl]-(4-trifluoromethoxy-phenyl)amine] | 875 nM |
| COc1cc2nccc(Oc3ccc(Nc4ccc(OCc5ccccc5)cc4)cc3)c2cc1OC [Compound 7, (4-Benzyloxyphenyl)-[4-(6,7-dimethoxyquinolin-4-yloxy)phenyl]-amine] | 1800 nM |
| CCCCc1ccc(Nc2ccc(Oc3ccnc4cc(OC)c(OC)cc34)cc2)cc1 [Compound 8, (4-Butylphenyl)-[4-(6,7-dimethoxyquinolin-4-yloxy)phenyl]amine] | 1500 nM |
| COc1cc2nccc(Oc3ccc(Nc4ccc(C(C)C)cc4)cc3)c2cc1OC [Compound 9, [4-(6,7-Dimethoxyquinolin-4-yloxy)phenyl]-(4-isopropylphenyl)-amine] | 313 nM |
| COc1cc2nccc(Oc3ccc(Nc4ccc(C5CCCCC5)cc4)cc3)c2cc1OC [Compound 10, (4-Cyclohexylphenyl)-[4-(6,7-dimethoxyquinolin-4-yloxy)phenyl]-amine] | 631 nM |
| COc1cc2nccc(Oc3ccc(Nc4ccc(C(C)(C)C)cc4)c(Cl)c3)c2cc1OC [Compound 11, (4-Tert-butylphenyl)-[2-chloro-4-(6,7-dimethoxyquinolin-4-yloxy)phenyl]amine] | 320 nM |
| COc1cc2nccc(Oc3ccc(Nc4ccc(C(C)(C)C)cc4)cc3Cl)c2cc1OC [Compound 12, (4-Tert-butylphenyl)-[3-chloro-4-(6,7-dimethoxyquinolin-4-yloxy)phenyl]amine] | 285 nM |
| COc1cc2nccc(Oc3ccc(Nc4ccc(C(C)(C)C)cc4)c(C)c3)c2cc1OC [Compound 13, (4-Tert-butylphenyl)-[4-(6,7-dimethoxyquinolin-4-yloxy)-2-methylphenyl]amine] | 279 nM |
| COc1cc(Oc2ccnc3cc(OC)c(OC)cc23)ccc1Nc1ccc(C(C)(C)C)cc1 [Compound 14, (4-Tert-butylphenyl)-[4-(6,7-dimethoxyquinolin-4-yloxy)-2-methoxyphenyl]amine] | 1920 nM |
| COc1cc2nccc(Oc3ccc(Nc4ccc(C(C)(C)C)cc4)cc3OC)c2cc1OC [Compound 15, (4-Tert-butylphenyl)-[4-(6,7-dimethoxyquinolin-4-yloxy)-3-methoxyphenyl]amine] | 430 nM |
| COc1cc2nccc(Oc3ccc(Nc4ccc(C(C)(C)C)cc4)c(C)c3C)c2cc1OC [Compound 16, (4-Tert-butylphenyl)-[4-(6,7-dimethoxyquinolin-4-yloxy)-2,3-dimethylphenyl]amine] | 242 nM |
| COc1cc2nccc(Oc3cc(C)c(Nc4ccc(C(C)(C)C)cc4)cc3C)c2cc1OC [Compound 17, (4-Tert-butylphenyl)-[4-(6,7-dimethoxyquinolin-4-yloxy)-2,5-dimethylphenyl]amine] | 5610 nM |
| COc1cc2nccc(Oc3ccc(Nc4ccc(C(C)(C)C)cc4)cc3F)c2cc1OC [Compound 18, (4-Tert-butylphenyl)-[4-(6,7-dimethoxyquinolin-4-yloxy)-3-fluorophenyl]amine] | 155 nM |
| COc1cc2nccc(Oc3ccc(Nc4ccc(C(C)(C)C)cc4)c(F)c3)c2cc1OC [Compound 19, (4-Tert-butylphenyl)-[4-(6,7-dimethoxyquinolin-4-yloxy)-2-fluorophenyl]amine] | 195 nM |
| COc1cc2nccc(Oc3ccc(N(C)c4ccc(C(C)(C)C)cc4)cc3)c2cc1OC [Compound 20, (4-Tert-butylphenyl)-[4-(6.7-dimethoxyquinolin-4-yloxy)phenyl]-methylamine] | 325 nM |
| COc1cc2c(Oc3ccc(Nc4ccc(C(C)(C)C)cc4)cc3)ccnc2cc1O [Compound 21, 4-[4-(4-Tert-butylphenylamino)phenoxy]-6-methoxy-quinolin-7-ol] | 328 nM |
| COc1cc2c(Oc3ccc(Nc4ccc(C(C)(C)C)cc4)cc3)ccnc2cc1OCCCl [Compound 22, (4-Tert-butylphenyl)-{4-[7-(2-chloroethoxy)-6-methoxyquinolin-4-yloxy]phenyl}amine] | 189 nM |
| COc1cc2c(Oc3ccc(Nc4ccc(C(C)(C)C)cc4)cc3)ccnc2cc1OCCCCl [Compound 23, (4-Tert-butylphenyl)-{4-[7-(3-chloropropoxy)-6-methoxyquinolin-4-yloxy]phenyl}amine] | 762 nM |
| COc1cc2c(Oc3ccc(Nc4ccc(C(C)(C)C)cc4)cc3)ccnc2cc1OCCCN1CCOCC1 [Compound 24, (4-Tert-butylphenyl)-{4-[6-methoxy-7-(3-morpholin-4-ylpropoxy)quinolin-4-yloxy]phenyl}amine] | 183 nM |
| COc1cc2c(Oc3ccc(Nc4ccc(C(C)(C)C)cc4)cc3)ccnc2cc1OCCCCN1CCOCC1 [Compound 25, (4-Tert-butylphenyl)-{4-[6-methoxy-7-(4-morpholin-4-ylbutoxy)-quinolin-4-yloxy]phenyl}amine] | 199 nM |
| COc1cc2c(Oc3ccc(Nc4ccc(C(C)(C)C)cc4)cc3)ccnc2cc1OCCC(N)=O [Compound 26, 3-{4-[4-(4-Tert-butylphenylamino)phenoxy]-6-methoxyquinolin-7-yloxy}propionamide] | 318 nM |
| COc1cc2c(Oc3ccc(Nc4ccc(C(C)(C)C)cc4)cc3)ccnc2cc1OCCC1CCCN1C (stereo not drawn) [Compound 27, (4-Tert-butylphenyl)-(4-{6-methoxy-7-[2-(1-methylpyrrolidin-2-yl)ethoxy]quinolin-4-yloxy}phenyl)amine] | 2520 nM |
| COc1cc2c(Oc3ccc(Nc4ccc(C(C)(C)C)cc4)cc3)ccnc2cc1OCc1csc(C)n1 [Compound 28, (4-Tert-butylphenyl)-{4-[6-methoxy-7-(2-methylthiazol-4-ylmethoxy)quinolin-4-yloxy]phenyl}amine] | 2400 nM |
| COc1cc2c(Oc3ccc(Nc4ccc(C(C)(C)C)cc4)cc3)ccnc2cc1OCCCCN1CCN(C)CC1 [Compound 29, (4-Tert-butylphenyl)-(4-{6-methoxy-7-[4-(4-methylpiperazin-1-yl)butoxy]quinolin-4-yloxy}phenyl)amine] | 931 nM |
